Counter-ions that a name gives are not always drawn.
Target: SSTR5 (Homo sapiens (Human), UniProt P35346)
Experiment: SSTR5 binding assay
Conditions: CHO-K1 membranes expressing cloned human SSTR5
Summary of the method: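 Competition binding on membranes from CHO-K1 cells stably expressing cloned human receptor, using radiolabeled somatostatin in 50 mM Tris-HCl pH 7.8 with EGTA, MgCl2 and protease inhibitors. Unlabeled compounds tested from 0.01 nM to 10,000 nM.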

SSTR5, sequence (P35346 whole entry): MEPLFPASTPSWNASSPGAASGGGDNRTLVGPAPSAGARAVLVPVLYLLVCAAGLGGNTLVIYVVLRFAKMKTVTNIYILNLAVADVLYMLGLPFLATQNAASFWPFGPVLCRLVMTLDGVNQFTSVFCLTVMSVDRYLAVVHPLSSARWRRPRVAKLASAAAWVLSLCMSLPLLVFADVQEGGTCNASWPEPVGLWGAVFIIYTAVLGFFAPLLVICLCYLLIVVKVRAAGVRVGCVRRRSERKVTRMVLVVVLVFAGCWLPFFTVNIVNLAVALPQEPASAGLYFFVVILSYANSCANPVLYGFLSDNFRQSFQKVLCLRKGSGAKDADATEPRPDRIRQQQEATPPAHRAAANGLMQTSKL

Structure (SMILES) | IC50 [nM]
CCCn1nc(CN2CCC3(CC2)CN(c2ccc(C(=O)O)cc2)C(=O)O3)c2ccc(OC)cc21 [Example 6-3, 4-{8-[(6-Methoxy-1-propyl-1H-indazol-3-yl)methyl]-2-oxo-1-oxa-3,8-diazaspiro[4.5]dec-3-yl}benzoic acid, TFA salt] | 156
COc1ccc2c(CN3CCC4(CC3)CN(c3ccc(C(=O)O)cc3)C(=O)O4)nn(-c3ccccc3)c2c1 [Example 6-13, 4-{8-[(6-Methoxy-1-phenyl-1H-indazol-3-yl)methyl]-2-oxo-1-oxa-3,8-diazaspiro[4.5]dec-3-yl}benzoic acid, TFA salt] | 185
CC(C)n1cc(CN2CCC3(CC2)CN(c2ccc(C(=O)O)cc2)C(=O)O3)c2c(OCc3ccccc3)cccc21 [Example 6-18, 4-(8-{[4-(Benzyloxy)-1-(propan-2-yl)-1H-indol-3-yl]methyl}-2-oxo-1-oxa-3,8-diazaspiro[4.5]dec-3-yl)benzoic acid, TFA salt] | 0.225
CCCn1cc(CN2CCC3(CC2)CN(c2ccc(C(=O)O)cc2)C(=O)O3)c2ccc(OC)cc21 [Example 6-20, 4-{8-[(6-Methoxy-1-propyl-1H-indol-3-yl)methyl]-2-oxo-1-oxa-3,8-diazaspiro[4.5]dec-3-yl}benzoic acid, TFA salt] | 1.06
CCCCn1cc(CN2CCC3(CC2)CN(c2ccc(C(=O)O)cc2)C(=O)O3)c2ccc(OC)cc21 [Example 6-21, 4-{8-[(6-Methoxy-1-butyl-1H-indol-3-yl)methyl]-2-oxo-1-oxa-3,8-diazaspiro[4.5]dec-3-yl}benzoic acid, TFA salt] | 11.7
COc1ccc2c(CN3CCC4(CC3)CN(c3ccc(C(=O)O)cc3)C(=O)O4)c[nH]c2c1 [Example 6-22, 4-{8-[(6-Methoxy-1H-indol-3-yl)methyl]-2-oxo-1-oxa-3,8-diazaspiro[4.5]dec-3-yl}benzoic acid, TFA salt] | 8.64
COc1ccc2c(CN3CCC4(CC3)CN(c3ccc(C(=O)O)cc3)C(=O)O4)cn(-c3ccccc3)c2c1 [Example 6-23, 4-{8-[(6-Methoxy-1-phenyl-1H-indol-3-yl)methyl]-2-oxo-1-oxa-3,8-diazaspiro[4.5]dec-3-yl}benzoic acid, TFA salt] | 9.06
CC(C)n1cc(CN2CCC3(CC2)CN(c2ccc(C(=O)O)cc2)C(=O)O3)c2cc(-c3ccc(F)c(F)c3F)ccc21 [Example 6-24, TFA salt] | 0.342
O=C(O)c1ccc(N2CC3(CCN(Cc4nc(-c5ccccc5)oc4-c4ccc(F)c(Cl)c4)CC3)OC2=O)cc1 [Example 6-27, 4-(8-{[5-(3-Chloro-4-fluorophenyl)-2-phenyl-1,3-oxazol-4-yl]methyl}-2-oxo-1-oxa-3,8-diazaspiro[4.5]dec-3-yl)benzoic acid, TFA salt] | 119
COc1ccc(-c2nc(C3CCCCC3)sc2CN2CCC3(CC2)CN(c2ccc(C(=O)O)cc2)C(=O)O3)cc1 [Example 6-28, 4-(8-{[2-Cyclohexyl-4-(4-methoxyphenyl)-1,3-thiazol-5-yl]methyl}-2-oxo-1-oxa-3,8-diazaspiro[4.5]dec-3-yl)benzoic acid, TFA salt] | 1.34
COc1ccc(-c2nc(C(C)(C)C)sc2CN2CCC3(CC2)CN(c2ccc(C(=O)O)cc2)C(=O)O3)cc1 [Example 6-29, 4-(8-{[2-tert-Butyl-4-(4-methoxyphenyl)-1,3-thiazol-5-yl]methyl}-2-oxo-1-oxa-3,8-diazaspiro[4.5]dec-3-yl)benzoic acid, TFA salt] | 0.705
O=C(O)c1ccc(N2CC3(CCN(Cc4nc(-c5ccccc5)oc4-c4cc(F)c(F)cc4F)CC3)OC2=O)cc1 [Example 6-30, 4-(2-Oxo-8-{[2-phenyl-5-(2,4,5-trifluorophenyl)-1,3-oxazol-4-yl]methyl}-1-oxa-3,8-diazaspiro[4.5]dec-3-yl)benzoic acid, TFA salt] | 89.9
O=C(O)c1ccc(N2CC3(CCN(Cc4nc(C5CC5)oc4-c4ccc(F)c(Cl)c4)CC3)OC2=O)cc1 [Example 6-31, 4-(8-{[5-(3-Chloro-4-fluorophenyl)-2-cyclopropyl-1,3-oxazol-4-yl]methyl}-2-oxo-1-oxa-3,8-diazaspiro[4.5]dec-3-yl)benzoic acid, TFA salt] | 414

Results, then the compound that gave them:

IC50 [nM] | Structure (SMILES)
1170 | O=C(O)c1ccc(N2CC3(CCN(Cc4n[nH]c5ccc(F)cc45)CC3)OC2=O)cc1 [Example 6-1, 4-{8-[(5-Fluoro-1H-indazol-3-yl)methyl]-2-oxo-1-oxa-3,8-diazaspiro[4.5]dec-3-yl}benzoic acid, TFA salt]
1740 | COc1ccc2c(CN3CCC4(CC3)CN(c3ccc(C(=O)O)cc3)C(=O)O4)n[nH]c2c1 [Example 6-2, 4-{8-[(6-Methoxy-1H-indazol-3-yl)methyl]-2-oxo-1-oxa-3,8-diazaspiro[4.5]dec-3-yl}benzoic acid, TFA salt]
98.7 | CCCCn1nc(CN2CCC3(CC2)CN(c2ccc(C(=O)O)cc2)C(=O)O3)c2cc(F)ccc21 [Example 6-4, 4-{8-[(1-Butyl-5-fluoro-1H-indazol-3-yl)methyl]-2-oxo-1-oxa-3,8-diazaspiro[4.5]dec-3-yl}benzoic acid, TFA salt]
149 | CC(C)n1nc(CN2CCC3(CC2)CN(c2ccc(C(=O)O)cc2)C(=O)O3)c2cc(F)ccc21 [Example 6-5, 4-(8-{[5-Fluoro-1-(propan-2-yl)-1H-indazol-3-yl]methyl}-2-oxo-1-oxa-3,8-diazaspiro[4.5]dec-3-yl)benzoic acid, TFA salt]
68.1 | COc1ccc2c(CN3CCC4(CC3)CN(c3ccc(C(=O)O)cc3)C(=O)O4)nn(C(C)C)c2c1 [Example 6-6, 4-(8-{[6-Methoxy-1-(propan-2-yl)-1H-indazol-3-yl]methyl}-2-oxo-1-oxa-3,8-diazaspiro[4.5]dec-3-yl)benzoic acid, TFA salt]
1200 | CCCn1nc(CN2CCC3(CC2)CN(c2ccc(C(=O)O)cc2)C(=O)O3)c2ccc(C#N)cc21 [Example 6-7, 4-{8-[(6-Cyano-1-propyl-1H-indazol-3-yl)methyl]-2-oxo-1-oxa-3,8-diazaspiro[4.5]dec-3-yl}benzoic acid, TFA salt]
1200 | CC(C)n1nc(CN2CCC3(CC2)CN(c2ccc(C(=O)O)cc2)C(=O)O3)c2ccc(C(N)=O)cc21 [Example 6-8, 4-(8-{[6-Carbamoyl-1-(propan-2-yl)-1H-indazol-3-yl]methyl}-2-oxo-1-oxa-3,8-diazaspiro[4.5]dec-3-yl)benzoic acid, TFA salt]
121 | CC(C)n1nc(CN2CCC3(CC2)CN(c2ccc(C(=O)O)cc2)C(=O)O3)c2ccc(C#N)cc21 [Example 6-9, 4-(8-{[6-Cyano-1-(propan-2-yl)-1H-indazol-3-yl]methyl}-2-oxo-1-oxa-3,8-diazaspiro[4.5]dec-3-yl)benzoic acid, TFA salt]
137 | CC(C)(C)Cn1nc(CN2CCC3(CC2)CN(c2ccc(C(=O)O)cc2)C(=O)O3)c2cc(F)ccc21 [Example 6-10, 4-(8-{[1-(2,2-Dimethylpropyl)-5-fluoro-1H-indazol-3-yl]methyl}-2-oxo-1-oxa-3,8-diazaspiro[4.5]dec-3-yl)benzoic acid, TFA salt]
410 | COc1ccc2c(CN3CCC4(CC3)CN(c3ccc(C(=O)O)cc3)C(=O)O4)nn(CC(C)(C)C)c2c1 [Example 6-11, 4-(8-{[1-(2,2-Dimethylpropyl)-6-methoxy-1H-indazol-3-yl]methyl}-2-oxo-1-oxa-3,8-diazaspiro[4.5]dec-3-yl)benzoic acid, TFA salt]
216 | COc1ccc2c(CN3CCC4(CC3)CN(c3ccc(C(=O)O)cc3)C(=O)O4)nn(C3CC3)c2c1 [Example 6-12, 4-{8-[(1-Cyclopropyl-6-methoxy-1H-indazol-3-yl)methyl]-2-oxo-1-oxa-3,8-diazaspiro[4.5]dec-3-yl}benzoic acid, TFA salt]
0.26 | CC(C)n1nc(CN2CCC3(CC2)CN(c2ccc(C(=O)O)cc2)C(=O)O3)c2cc(OCc3ccccc3)ccc21 [Example 6-14, 4-(8-{[5-(Benzyloxy)-1-(propan-2-yl)-1H-indazol-3-yl]methyl}-2-oxo-1-oxa-3,8-diazaspiro[4.5]dec-3-yl)benzoic acid, TFA salt]
1200 | COc1ccc2c(CN3CCC4(CC3)CN(c3ccc(C(=O)O)cc3)C(=O)O4)nn(CC(=O)C(C)(C)C)c2c1 [Example 6-15, 4-(8-{[1-(3,3-Dimethyl-2-oxobutyl)-6-methoxy-1H-indazol-3-yl]methyl}-2-oxo-1-oxa-3,8-diazaspiro[4.5]dec-3-yl)benzoic acid, TFA salt]
0.851 | COc1ccc2c(CN3CCC4(CC3)CN(c3ccc(C(=O)O)cc3)C(=O)O4)cn(C(C)C)c2c1 [Example 6-16, 4-(8-{[6-Methoxy-1-(propan-2-yl)-1H-indol-3-yl]methyl}-2-oxo-1-oxa-3,8-diazaspiro[4.5]dec-3-yl)benzoic acid, TFA salt]
61.6 | CC(C)(C)n1nc(CN2CCC3(CC2)CN(c2ccc(C(=O)O)cc2)C(=O)O3)c2cc(Cl)c(F)cc21 [Example 6-17, 4-{8-[(1-tert-Butyl-5-chloro-6-fluoro-1H-indazol-3-yl)methyl]-2-oxo-1-oxa-3,8-diazaspiro[4.5]dec-3-yl}benzoic acid, TFA salt]
6.79 | COc1ccc2c(CN3CCC4(CC3)CN(c3ccc(C(=O)O)cc3)C(=O)O4)cn(C)c2c1 [Example 6-19, 4-{8-[(6-Methoxy-1-methyl-1H-indol-3-yl)methyl]-2-oxo-1-oxa-3,8-diazaspiro[4.5]dec-3-yl}benzoic acid, TFA salt]
0.55 | CC(C)n1cc(CN2CCC3(CC2)CN(c2ccc(C(=O)O)cc2)C(=O)O3)c2cc(Br)ccc21 [Example 6-25, 4-(8-{[5-Bromo-1-(propan-2-yl)-1H-indol-3-yl]methyl}-2-oxo-1-oxa-3,8-diazaspiro[4.5]dec-3-yl)benzoic acid, TFA salt]
1.45 | COc1ccc2c(c1)c(CN1CCC3(CC1)CN(c1ccc(C(=O)O)cc1)C(=O)O3)cn2C(C)C [Example 6-26, 4-(8-{[5-Methoxy-1-(propan-2-yl)-1H-indol-3-yl]methyl}-2-oxo-1-oxa-3,8-diazaspiro[4.5]dec-3-yl)benzoic acid, TFA salt]
